Source: PubChem BioAssay (NCI)
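In this assay, cells in 96-well plates receive the compound at five concentrations for 48 hours. Endpoints are linearly interpolated between the surrounding concentrations. The concentration for full growth arrest is given as TGI.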

Tests used:
Experiment in all cases: NCI tumour cell line growth inhibition, 48 h
HOP-18 NSCLC = tested on: HOP-18 NSCLC
SK-OV-3 ovarian = tested on: SK-OV-3 ovarian
OVCAR-5 ovarian = tested on: OVCAR-5 ovarian
SF-295 CNS = tested on: SF-295 CNS
HOP-62 NSCLC = tested on: HOP-62 NSCLC
DMS 114 small cell lung = tested on: DMS 114 small cell lung
RXF 393 renal = tested on: RXF 393 renal
A498 renal = tested on: A498 renal
SK-MEL-5 melanoma = tested on: SK-MEL-5 melanoma
M19-MEL melanoma = tested on: M19-MEL melanoma
SF-268 CNS = tested on: SF-268 CNS
LXFL 529 NSCLC = tested on: LXFL 529 NSCLC
SNB-78 CNS = tested on: SNB-78 CNS
786-0 renal = tested on: 786-0 renal
SN12C renal = tested on: SN12C renal
SK-MEL-28 melanoma = tested on: SK-MEL-28 melanoma
COLO 205 colon = tested on: COLO 205 colon
UACC-257 melanoma = tested on: UACC-257 melanoma
HCT-15 colon = tested on: HCT-15 colon
SR leukemia = tested on: SR leukemia
NCI-H226 lung = tested on: NCI-H226 lung
NCI-H23 lung = tested on: NCI-H23 lung
LOX IMVI melanoma = tested on: LOX IMVI melanoma
ACHN renal = tested on: ACHN renal
DLD-1 colon = tested on: DLD-1 colon
OVCAR-4 ovarian = tested on: OVCAR-4 ovarian
HOP-92 NSCLC = tested on: HOP-92 NSCLC
SNB-75 CNS = tested on: SNB-75 CNS
TK-10 renal = tested on: TK-10 renal
NCI-H460 lung = tested on: NCI-H460 lung
XF 498 CNS = tested on: XF 498 CNS
SK-MEL-2 melanoma = tested on: SK-MEL-2 melanoma
CAKI-1 renal = tested on: CAKI-1 renal
M14 melanoma = tested on: M14 melanoma
UACC-62 melanoma = tested on: UACC-62 melanoma
HT29 colon = tested on: HT29 colon
MALME-3M melanoma = tested on: MALME-3M melanoma
SNB-19 CNS = tested on: SNB-19 CNS
HL-60(TB) leukemia = tested on: HL-60(TB) leukemia
HCT-116 colon = tested on: HCT-116 colon
SF-539 CNS = tested on: SF-539 CNS
K-562 leukemia = tested on: K-562 leukemia
DMS 273 small cell lung = tested on: DMS 273 small cell lung
EKVX NSCLC = tested on: EKVX NSCLC
OVCAR-8 ovarian = tested on: OVCAR-8 ovarian
SW-620 colon = tested on: SW-620 colon
UO-31 renal = tested on: UO-31 renal
HCC-2998 colon = tested on: HCC-2998 colon
IGROV1 ovarian = tested on: IGROV1 ovarian
U251 CNS = tested on: U251 CNS
NCI-H522 lung = tested on: NCI-H522 lung
A549 NSCLC = tested on: A549 NSCLC
CCRF-CEM leukemia = tested on: CCRF-CEM leukemia
KM12 colon = tested on: KM12 colon
KM20L2 colon = tested on: KM20L2 colon
OVCAR-3 ovarian = tested on: OVCAR-3 ovarian
MOLT-4 leukemia = tested on: MOLT-4 leukemia
RPMI-8226 leukemia = tested on: RPMI-8226 leukemia

SMILES: O=C1C2C=CC(n3[nH]c(=O)n(Cc4ccccc4)c3=O)CC2C(=O)N1c1cccc(Cl)c1 (configuration not stated)
- TGI (HOP-18 NSCLC): > 100 µM
- TGI (SK-OV-3 ovarian): > 100 µM
- TGI (OVCAR-5 ovarian): > 100 µM
- TGI (SF-295 CNS): > 100 µM
- TGI (HOP-62 NSCLC): > 100 µM
- TGI (DMS 114 small cell lung): > 100 µM
- TGI (RXF 393 renal): > 100 µM
- TGI (A498 renal): > 100 µM
- TGI (SK-MEL-5 melanoma): > 100 µM
- TGI (M19-MEL melanoma): > 100 µM
- TGI (SF-268 CNS): > 100 µM
- TGI (LXFL 529 NSCLC): > 100 µM
- TGI (SNB-78 CNS): > 100 µM
- TGI (786-0 renal): > 100 µM
- TGI (SN12C renal): > 100 µM
- TGI (SK-MEL-28 melanoma): > 100 µM
- TGI (COLO 205 colon): > 100 µM
- TGI (UACC-257 melanoma): > 100 µM
- TGI (HCT-15 colon): > 100 µM
- TGI (SR leukemia): > 100 µM
- TGI (NCI-H226 lung): > 100 µM
- TGI (NCI-H23 lung): > 100 µM
- TGI (LOX IMVI melanoma): > 100 µM
- TGI (ACHN renal): > 100 µM
- TGI (DLD-1 colon): > 100 µM
- TGI (OVCAR-4 ovarian): > 100 µM
- TGI (HOP-92 NSCLC): > 100 µM
- TGI (SNB-75 CNS): > 100 µM
- TGI (TK-10 renal): > 100 µM
- TGI (NCI-H460 lung): > 100 µM
- TGI (XF 498 CNS): > 100 µM
- TGI (SK-MEL-2 melanoma): > 100 µM
- TGI (CAKI-1 renal): > 100 µM
- TGI (M14 melanoma): > 100 µM
- TGI (UACC-62 melanoma): > 100 µM
- TGI (HT29 colon): > 100 µM
- TGI (MALME-3M melanoma): > 100 µM
- TGI (SNB-19 CNS): > 100 µM
- TGI (HL-60(TB) leukemia): > 100 µM
- TGI (HCT-116 colon): > 100 µM
- TGI (SF-539 CNS): > 100 µM
- TGI (K-562 leukemia): > 100 µM
- TGI (DMS 273 small cell lung): > 100 µM
- TGI (EKVX NSCLC): > 100 µM
- TGI (OVCAR-8 ovarian): > 100 µM
- TGI (SW-620 colon): > 100 µM
- TGI (UO-31 renal): > 100 µM
- TGI (HCC-2998 colon): > 100 µM
- TGI (IGROV1 ovarian): > 100 µM
- TGI (U251 CNS): > 100 µM
- TGI (NCI-H522 lung): > 100 µM
- TGI (A549 NSCLC): > 100 µM
- TGI (CCRF-CEM leukemia): > 100 µM
- TGI (KM12 colon): > 100 µM
- TGI (KM20L2 colon): > 100 µM
- TGI (OVCAR-3 ovarian): > 100 µM

SMILES: CCC(C)CN1C(=O)NC(Cc2ccccc2)C1=O (configuration not stated)
- TGI (HOP-18 NSCLC): > 100 µM
- TGI (OVCAR-5 ovarian): > 100 µM
- TGI (SF-295 CNS): > 100 µM
- TGI (HOP-62 NSCLC): > 100 µM
- TGI (DMS 114 small cell lung): > 100 µM
- TGI (RXF 393 renal): > 100 µM
- TGI (M19-MEL melanoma): > 100 µM
- TGI (SF-268 CNS): > 100 µM
- TGI (LXFL 529 NSCLC): > 100 µM
- TGI (SNB-78 CNS): > 100 µM
- TGI (SN12C renal): > 100 µM
- TGI (SK-MEL-28 melanoma): > 100 µM
- TGI (UACC-257 melanoma): 79.5 µM
- TGI (SR leukemia): > 100 µM
- TGI (NCI-H226 lung): > 100 µM
- TGI (NCI-H23 lung): > 100 µM
- TGI (LOX IMVI melanoma): > 100 µM
- TGI (ACHN renal): > 100 µM
- TGI (DLD-1 colon): > 100 µM
- TGI (HOP-92 NSCLC): 90.8 µM
- TGI (SNB-75 CNS): > 100 µM
- TGI (TK-10 renal): > 100 µM
- TGI (NCI-H460 lung): > 100 µM
- TGI (XF 498 CNS): > 100 µM
- TGI (SK-MEL-2 melanoma): > 100 µM
- TGI (CAKI-1 renal): > 100 µM
- TGI (M14 melanoma): > 100 µM
- TGI (HT29 colon): > 100 µM
- TGI (MALME-3M melanoma): > 100 µM
- TGI (SNB-19 CNS): > 100 µM
- TGI (SF-539 CNS): > 100 µM
- TGI (DMS 273 small cell lung): > 100 µM
- TGI (EKVX NSCLC): > 100 µM
- TGI (OVCAR-8 ovarian): > 100 µM
- TGI (SW-620 colon): > 100 µM
- TGI (UO-31 renal): > 100 µM
- TGI (HCC-2998 colon): > 100 µM
- TGI (U251 CNS): > 100 µM
- TGI (NCI-H522 lung): > 100 µM
- TGI (A549 NSCLC): > 100 µM
- TGI (KM12 colon): > 100 µM
- TGI (KM20L2 colon): > 100 µM

SMILES: O=C(NC(=S)Nc1ccccc1)c1ccc([N+](=O)[O-])cc1
- TGI (HOP-18 NSCLC): > 100 µM
- TGI (SK-OV-3 ovarian): > 100 µM
- TGI (SF-295 CNS): > 100 µM
- TGI (HOP-62 NSCLC): > 100 µM
- TGI (DMS 114 small cell lung): 44.5 µM
- TGI (SK-MEL-5 melanoma): > 100 µM
- TGI (M19-MEL melanoma): > 100 µM
- TGI (SF-268 CNS): > 100 µM
- TGI (LXFL 529 NSCLC): > 100 µM
- TGI (SNB-78 CNS): > 100 µM
- TGI (786-0 renal): > 100 µM
- TGI (SN12C renal): > 100 µM
- TGI (MOLT-4 leukemia): > 100 µM
- TGI (SK-MEL-28 melanoma): > 100 µM
- TGI (COLO 205 colon): > 100 µM
- TGI (UACC-257 melanoma): > 100 µM
- TGI (HCT-15 colon): > 100 µM
- TGI (NCI-H23 lung): > 100 µM
- TGI (LOX IMVI melanoma): > 100 µM
- TGI (ACHN renal): > 100 µM
- TGI (DLD-1 colon): > 100 µM
- TGI (OVCAR-4 ovarian): > 100 µM
- TGI (HOP-92 NSCLC): > 100 µM
- TGI (SNB-75 CNS): > 100 µM
- TGI (TK-10 renal): > 100 µM
- TGI (NCI-H460 lung): > 100 µM
- TGI (XF 498 CNS): > 100 µM
- TGI (CAKI-1 renal): > 100 µM
- TGI (RPMI-8226 leukemia): > 100 µM
- TGI (M14 melanoma): > 100 µM
- TGI (UACC-62 melanoma): > 100 µM
- TGI (HT29 colon): > 100 µM
- TGI (MALME-3M melanoma): > 100 µM
- TGI (HL-60(TB) leukemia): > 100 µM
- TGI (HCT-116 colon): > 100 µM
- TGI (K-562 leukemia): > 100 µM
- TGI (DMS 273 small cell lung): > 100 µM
- TGI (EKVX NSCLC): > 100 µM
- TGI (OVCAR-8 ovarian): > 100 µM
- TGI (SW-620 colon): > 100 µM
- TGI (UO-31 renal): > 100 µM
- TGI (HCC-2998 colon): > 100 µM
- TGI (IGROV1 ovarian): > 100 µM
- TGI (NCI-H522 lung): 86.6 µM
- TGI (A549 NSCLC): > 100 µM
- TGI (CCRF-CEM leukemia): > 100 µM
- TGI (KM12 colon): > 100 µM
- TGI (KM20L2 colon): > 100 µM
- TGI (OVCAR-3 ovarian): > 100 µM
